Consider six molecules from patent US6806264B2, “Arylphenyl-substituted cyclic ketoenols” (Bayer Aktiengesellschaft, priority 1998, dated 2004).

Data set [1] relates to larvae of the mustard beetle (Phaedon cochileariae). Nature of the data set: Phaedon larvae test. The following applies: concentration of active compound 0.1 %, cabbage leaves (Brassica oleracea) dipped.
In data set [2] the test system is peach aphids (Myzus persicae). Nature of the data set: Myzus test. The format is in vivo. To be noted: concentration of active compound 0.1 %, infested cabbage leaves (Brassica oleracea) dipped.
Data set [3] relates to greenhouse red spidermite (Tetranychus urticae). Nature of the data set: Tetranychus test (OP-resistant/dip treatment). The format is in vivo. The following applies: concentration of active compound 0.1 %, infested bean plants (Phaseolus vulgaris) dipped, OP-resistant. On the procedure:
After the desired period of time, the effect in % is determined.

For data set [4], the system named is caterpillars of the army worm (Spodoptera frugiperda). Nature of the data set: Spodoptera frugiperda test. The following applies: concentration of active compound 0.1 %, cabbage leaves (Brassica oleracea) dipped. It counts as in vivo.

The melting point is the temperature, or range, at which the solid turns liquid.

`Cc1ccc(-c2ccccc2)c(C)c1C1=C(O)C2(CCC(C)CC2)NC1=O` (stereo not drawn) [Ex. I-1-a-2] returned a melting point of over 240 °C. For the same molecule, in data set [1], the “Degree of kill in % after 7 days” value was 100%. In data set [2], the “Degree of kill in % after 6 days” value is given as 95%.

Turning to `Cc1ccc(-c2ccc(Cl)cc2)c(C)c1C1=C(O)C2(CCC(C)CC2)NC1=O` (stereo not drawn) [Ex. I-1-a-3], the melting point was over 240 °C. In data set [1], the “Degree of kill in % after 7 days” value is given as 100%. The “Degree of kill in % after 6 days” value in data set [2] was 98%. The “Degree of kill in % after 7 days” value in data set [3] is 100%. In data set [4], the “Degree of kill in % after 7 days” value came to 100%.

As to `COC1CCC2(CC1)NC(=O)C(c1c(C)cc(C)c(-c3ccc(Cl)cc3)c1C)=C2O` (stereo not drawn) [Ex. I-1-a-5], the melting point is over 240 °C. For the same molecule, the “Degree of kill in % after 7 days” value in data set [1] turned out to be 100%. Besides, in data set [4], the “Degree of kill in % after 7 days” value is on record as 100%.

In turn, `COC1CCC2(CC1)NC(=O)C(c1c(C)cc(C)c(-c3ccccc3)c1C)=C2O` (stereo not drawn) [Ex. I-1-a-6] had a melting point of over 240 °C. Also, the “Degree of kill in % after 7 days” value in data set [1] was 100%. In addition, in data set [2], the “Degree of kill in % after 6 days” value stood at 100%. Moreover, the “Degree of kill in % after 7 days” value in data set [4] stood at 100%.

As for `Cc1ccc(-c2ccc(Cl)cc2)c(C)c1C1=C(O)C2(CCCOC2)NC1=O` (stereo not drawn) [Ex. I-1-a-7], the melting point was over 250 °C. The “Degree of kill in % after 7 days” value in data set [1] is given as 100%. Also, the “Degree of kill in % after 6 days” value in data set [2] turned out to be 98%. The “Degree of kill in % after 7 days” value in data set [4] was found to be 100%.

The molecule `COc1cc(Cl)c(C2=C(O)C3(CCC(OC)CC3)NC2=O)cc1-c1ccccc1` (stereo not drawn) [Ex. I-1-a-13] showed a melting point of 134 °C. In addition, the “Degree of kill in % after 7 days” value in data set [1] came out at 100%.
